ChEMBL document CHEMBL3046890, “Synthesis and Herbicidal Activity of Sulfonylureas; SL-950 and Its Related Compounds” (1995)

Columns and labels:
Type in all cases: functional
Echinochloa crus-galli [1] = assay: Post emergence herbicidal activity against three-leaf stage Echinochloa crus-galli (barnyard grass) assessed as efficacy of weed growth control at 750 g ai/ha under greenhouse conditions
Avena fatua [2] = assay: Post-emergence herbicidal activity against three-leaf stage Avena fatua assessed as efficacy of weed growth control at 80 g ai/ha under greenhouse conditions
Chenopodium album [3] = assay: Post-emergence herbicidal activity against two-leaf stage Chenopodium album assessed as efficacy of weed growth control at 60 g ai/ha under greenhouse conditions
Amaranthus viridis [4] = assay: Post-emergence herbicidal activity against three-leaf stage Amaranthus viridis assessed as efficacy of weed growth control at 80 g ai/ha under greenhouse conditions
Sorghum halepense [5] = assay: Post emergence herbicidal activity against four to five-leaf stage Sorghum halepense (Johnson grass) assessed as efficacy of weed growth control at 750 g ai/ha under greenhouse conditions
Elymus repens [6] = assay: Post-emergence herbicidal activity against three to four-leaf stage Elymus repens (couch grass) assessed as efficacy of weed growth control at 40 g ai/ha under greenhouse conditions
Abutilon theophrasti = assay: Post-emergence herbicidal activity against one-leaf stage Abutilon theophrasti (velvetleaf) assessed as efficacy of weed growth control at 60 g ai/ha under greenhouse conditions
Cynodon dactylon [7] = assay: Post-emergence herbicidal activity against 15 cm leaf stage Cynodon dactylon assessed as efficacy of weed growth control at 40 g ai/ha under greenhouse conditions
Xanthium strumarium = assay: Post emergence herbicidal activity against Xanthium strumarium (cocklebur) assessed as inhibition of weed growth at 125 g ai/ha measured 22 to 37 days after compound application under greenhouse conditions; conditions: read-out: GI
Amaranthus viridis [8] = assay: Post-emergence herbicidal activity against three-leaf stage Amaranthus viridis assessed as efficacy of weed growth control at 60 g ai/ha under greenhouse conditions
Elymus repens [9] = assay: Post-emergence herbicidal activity against three to four-leaf stage Elymus repens (couch grass) assessed as efficacy of weed growth control at 60 g ai/ha under greenhouse conditions
Commelina communis = assay: Post emergence herbicidal activity against two-leaf stage Commelina communis (Asiatic dayflower) assessed as efficacy of weed growth control at 40 g ai/ha under greenhouse conditions
Echinochloa crus-galli [10] = assay: Post emergence herbicidal activity against three-leaf stage Echinochloa crus-galli (barnyard grass) assessed as efficacy of weed growth control at 60 g ai/ha under greenhouse conditions
Cynodon dactylon [11] = assay: Post-emergence herbicidal activity against 15 cm leaf stage Cynodon dactylon assessed as efficacy of weed growth control at 80 g ai/ha under greenhouse conditions
Senna tora [12] = assay: Post-emergence herbicidal activity against one-leaf stage Senna tora assessed as efficacy of weed growth control at 750 g ai/ha under greenhouse conditions
Galinsoga quadriradiata = assay: Post-emergence herbicidal activity against four-leafstage of Galinsoga quadriradiata assessed as efficacy of weed growth control at 40 g ai/ha under greenhouse conditions
Senna tora [13] = assay: Post-emergence herbicidal activity against one-leaf stage Senna tora assessed as efficacy of weed growth control at 60 g ai/ha under greenhouse conditions
Senna tora [14] = assay: Post-emergence herbicidal activity against one-leaf stage Senna tora assessed as efficacy of weed growth control at 40 g ai/ha under greenhouse conditions
Sida spinosa [15] = assay: Post-emergence herbicidal activity against two-leaf stage Sida spinosa assessed as efficacy of weed growth control at 60 g ai/ha under greenhouse conditions
Sida spinosa [16] = assay: Post-emergence herbicidal activity against two-leaf stage Sida spinosa assessed as efficacy of weed growth control at 750 g ai/ha under greenhouse conditions
Cyperus microiria [17] = assay: Post-emergence herbicidal activity against three-leaf stage Cyperus microiria assessed as efficacy of weed growth control at 750 g ai/ha under greenhouse conditions
Sorghum halepense [18] = assay: Post emergence herbicidal activity against four to five-leaf stage Sorghum halepense (Johnson grass) assessed as efficacy of weed growth control at 60 g ai/ha under greenhouse conditions
Cyperus rotundus [19] = assay: Post-emergence herbicidal activity against four to five-leaf stage Cyperus rotundus assessed as efficacy of weed growth control at 60 g ai/ha under greenhouse conditions
Sorghum halepense [20] = assay: Post emergence herbicidal activity against four to five-leaf stage Sorghum halepense (Johnson grass) assessed as efficacy of weed growth control at 40 g ai/ha under greenhouse conditions
Capsella bursa-pastoris = assay: Post-emergence herbicidal activity against four-leafstage Capsella bursa-pastoris assessed as efficacy of weed growth control at 750 g ai/ha under greenhouse conditions
Portulaca oleracea [21] = assay: Post-emergence herbicidal activity against three-leaf stage Portulaca oleracea assessed as efficacy of weed growth control at 750 g ai/ha under greenhouse conditions
Solanum nigrum [22] = assay: Post emergence herbicidal activity against four-leaf stage Solanum nigrum (black nightshade) assessed as efficacy of weed growth control at 750 g ai/ha under greenhouse conditions
Persicaria longiseta = assay: Post-emergence herbicidal activity against Persicaria longiseta assessed as inhibition of weed growth at 125 g ai/ha measured 22 to 37 days after compound application under greenhouse conditions; conditions: read-out: GI
Senna tora [23] = assay: Post-emergence herbicidal activity against one-leaf stage Senna tora assessed as efficacy of weed growth control at 80 g ai/ha under greenhouse conditions
Cyperus rotundus [24] = assay: Post-emergence herbicidal activity against four to five-leaf stage Cyperus rotundus assessed as efficacy of weed growth control at 80 g ai/ha under greenhouse conditions
Digitaria sanguinalis = assay: Post-emergence herbicidal activity against two-leaf stage Digitaria sanguinalis (hairy crabgrass) assessed as efficacy of weed growth control at 60 g ai/ha under greenhouse conditions
Chenopodium album [25] = assay: Post emergence herbicidal activity against two-leaf stage Chenopodium album assessed as efficacy of weed growth control at 40 g ai/ha under greenhouse conditions
Portulaca oleracea [26] = assay: Post-emergence herbicidal activity against three-leaf stage Portulaca oleracea assessed as efficacy of weed growth control at 60 g ai/ha under greenhouse conditions
Persicaria lapathifolia = assay: Post-emergence herbicidal activity against three-leaf stage Persicaria lapathifolia assessed as efficacy of weed growth control at 40 g ai/ha under greenhouse conditions
Setaria viridis = assay: Post-emergence herbicidal activity against two-leaf stage Setaria viridis (green foxtail) assessed as efficacy of weed growth control at 750 g ai/ha under greenhouse conditions
Sida spinosa [27] = assay: Post-emergence herbicidal activity against two-leaf stage Sida spinosa assessed as efficacy of weed growth control at 80 g ai/ha under greenhouse conditions
Solanum nigrum [28] = assay: Post emergence herbicidal activity against four-leaf stage Solanum nigrum (black nightshade) assessed as efficacy of weed growth control at 80 g ai/ha under greenhouse conditions
Cyperus microiria [29] = assay: Post-emergence herbicidal activity against three-leaf stage Cyperus microiria assessed as efficacy of weed growth control at 60 g ai/ha under greenhouse conditions
Cynodon dactylon [30] = assay: Post-emergence herbicidal activity against 15 cm leaf stage Cynodon dactylon assessed as efficacy of weed growth control at 750 g ai/ha under greenhouse conditions
Stellaria media = assay: Post-emergence herbicidal activity against eight-leaf stage Stellaria media assessed as efficacy of weed growth control at 750 g ai/ha under greenhouse conditions
Avena fatua [31] = assay: Post emergence herbicidal activity against three-leaf stage Avena fatua assessed as efficacy of weed growth control at 750 g ai/ha under greenhouse conditions

SMILES: COc1cc(OC)nc(NC(=O)NS(=O)(=O)c2ncccc2C(=O)N(C)C)n1 [NICOSULFURON]
- Efficacy (Echinochloa crus-galli [1]): 50%
- Efficacy (Avena fatua [2]): 95%
- Efficacy (Chenopodium album [3]): 70%
- Efficacy (Amaranthus viridis [4]): 95%
- Efficacy (Sorghum halepense [5]): <50%
- Efficacy (Elymus repens [6]): 70%
- Efficacy (Abutilon theophrasti): 50%
- Efficacy (Cynodon dactylon [7]): <50%
- inhibition of growth at 125 g/ha (Xanthium strumarium): 100%
- Efficacy (Amaranthus viridis [8]): 95%
- Efficacy (Elymus repens [9]): 95%
- Efficacy (Commelina communis): 70%
- Efficacy (Echinochloa crus-galli [10]): 95%
- Efficacy (Cynodon dactylon [11]): <50%
- Efficacy (Senna tora [12]): <50%
- Efficacy (Galinsoga quadriradiata): 70%
- Efficacy (Senna tora [13]): 50%
- Efficacy (Senna tora [14]): 50%
- Efficacy (Sida spinosa [15]): 50%
- Efficacy (Sida spinosa [16]): 95%
- Efficacy (Cyperus microiria [17]): 95%
- Efficacy (Sorghum halepense [18]): 95%
- Efficacy (Cyperus rotundus [19]): 70%
- Efficacy (Sorghum halepense [20]): 70%
- Efficacy (Capsella bursa-pastoris): 95%
- Efficacy (Portulaca oleracea [21]): 95%
- Efficacy (Solanum nigrum [22]): 95%
- inhibition of growth at 125 g/ha (Persicaria longiseta): 100%
- Efficacy (Senna tora [23]): 70%
- Efficacy (Cyperus rotundus [24]): 70%
- Efficacy (Digitaria sanguinalis): 95%
- Efficacy (Chenopodium album [25]): 50%
- Efficacy (Portulaca oleracea [26]): 95%
- Efficacy (Persicaria lapathifolia): 70%
- Efficacy (Setaria viridis): 70%
- Efficacy (Sida spinosa [27]): 70%
- Efficacy (Solanum nigrum [28]): 70%
- Efficacy (Cyperus microiria [29]): 95%
- Efficacy (Cynodon dactylon [30]): <50%
- Efficacy (Stellaria media): 95%
- Efficacy (Avena fatua [31]): <50%
